Patent US11952378B1, “Pyrrolo[2,3-c]isoquinoline-1,2-dione compounds as CK2 inhibitors” (KING FAISAL UNIVERSITY, priority 2023, dated 2024)

Key:
HCT116 (colon) = experiment: In vitro cytotoxic activity assay (MTT), HCT116; type: cell-based; conditions: Homo sapiens, HCT-116; HCT116 (colon) cells, exposed for 96 hours; read-out: IC50, concentration eliciting 50% inhibition of cell proliferation
Description: (§1) Compounds 1-16 were screened for their in vitro cytotoxic behavior using a 3-(4,5-dimethyl-thiazol-2-yl)-2,5-diphenyltetrazolium bromide (MTT) assay against selected cancer human cell lines consisting of PC3 (prostate), HCT116 (colon), A375 (melanoma), H1299 (lung), MIAPaCa-2 (pancreas), HL60 (leukemia), MCF7 (breast), MDA-MB-231 (breast) (T. Mosmann, J. Immunol. Meth., 1983, 65, 55-63). The cells were cultured at 37° C. in RMPI1640 medium supplemented with 10% fetal bovine serum, 50 IU/mL penicillin, and 50 μg/mL streptomycin in a 5% CO2 incubator. All cells were sub-cultured 3 times/week by trypsinisation. Viable cells were seeded and allowed to adhere for 12 h before a test drug was added in 96-well plates at an initial density of 1.0×10^5 cells/mL. Tumor cell lines were separately exposed to various concentrations of the tested compounds followed by incubation at a temperature of 37° C. during 96 h inside a medium of fresh RMPI 1640. Cells were subsequently incubated at 37° C. using MTT at 0.5 mg/mL during 4 hours. After removal of supernatant, formazan crystals were dissolved in isopropanol and the optical density was measured at 570 nm. CX-4945 was used as a positive control.

MDA-MB-231 (breast) = experiment: In vitro cytotoxic activity assay (MTT), MDA-MB-231; type: cell-based; conditions: Homo sapiens; MDA-MB-231 (breast) cells, exposed for 96 hours; read-out: IC50, concentration eliciting 50% inhibition of cell proliferation
Description: as §1

H1299 (lung) = experiment: In vitro cytotoxic activity assay (MTT), H1299; type: cell-based; conditions: Homo sapiens, NCI-H1299; H1299 (lung) cells, exposed for 96 hours; read-out: IC50, concentration eliciting 50% inhibition of cell proliferation
Description: as §1

MCF7 (breast) = experiment: In vitro cytotoxic activity assay (MTT), MCF7; type: cell-based; conditions: Homo sapiens; MCF7 (breast) cells, exposed for 96 hours; read-out: IC50, concentration eliciting 50% inhibition of cell proliferation
Description: as §1

A375 (melanoma) = experiment: In vitro cytotoxic activity assay (MTT), A375; type: cell-based; conditions: Homo sapiens, A-375; A375 (melanoma) cells, exposed for 96 hours; read-out: IC50, concentration eliciting 50% inhibition of cell proliferation
Description: as §1

MIAPaCa-2 (pancreas) = experiment: In vitro cytotoxic activity assay (MTT), MIAPaCa-2; type: cell-based; conditions: Homo sapiens, MIA PaCa-2; MIAPaCa-2 (pancreas) cells, exposed for 96 hours; read-out: IC50, concentration eliciting 50% inhibition of cell proliferation
Description: as §1

[1] = target: T1, recombinant human CK2 (RRββ-holoenzyme) (Homo sapiens, UniProt P68400); experiment: CK2 Kinase Assay ([γ-33P]ATP, substrate peptide RRRDDDSDDD); type: biochemical; conditions: final ATP concentration 15 μM, 10 minutes at 30° C.; read-out: protein kinase CK2 IC50
T1 construct: purchased Millipore
T1 sequence (P68400 whole entry): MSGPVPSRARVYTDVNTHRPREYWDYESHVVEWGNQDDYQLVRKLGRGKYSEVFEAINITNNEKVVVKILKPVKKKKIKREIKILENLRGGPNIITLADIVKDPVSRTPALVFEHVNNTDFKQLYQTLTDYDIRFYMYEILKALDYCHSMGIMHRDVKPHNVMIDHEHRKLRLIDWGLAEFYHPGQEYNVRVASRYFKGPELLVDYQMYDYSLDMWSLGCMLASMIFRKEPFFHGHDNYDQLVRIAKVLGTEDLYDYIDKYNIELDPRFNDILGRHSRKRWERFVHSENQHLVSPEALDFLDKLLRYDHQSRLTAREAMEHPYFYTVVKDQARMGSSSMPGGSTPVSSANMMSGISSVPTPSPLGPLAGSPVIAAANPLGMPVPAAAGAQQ
T1 sequence (P67870 whole entry partner): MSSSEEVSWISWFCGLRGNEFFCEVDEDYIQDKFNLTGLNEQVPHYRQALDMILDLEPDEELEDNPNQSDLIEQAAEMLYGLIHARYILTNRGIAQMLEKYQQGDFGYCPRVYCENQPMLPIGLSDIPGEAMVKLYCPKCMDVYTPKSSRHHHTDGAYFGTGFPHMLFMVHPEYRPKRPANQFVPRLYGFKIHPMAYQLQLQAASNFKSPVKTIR
Description: CK2 Kinase Assay was conducted using the previously described protocol (Pierre F. et al; J. Med. Chem. 2011, 54, 635-654). The tested compounds in aqueous solution were added at a volume of 10 μL to a reaction mixture comprising 10 μL of assay dilution buffer (ADB; 20 mM MOPS, pH 7.2, 25 mM β-glycerol phosphate, 5 mM EGTA, 1 mM sodium orthovanadate, and 1 mM dithiothreitol), 10 μL of substrate peptide (RRRDDDSDDD, dissolved in ADB at a concentration of 1 mM), 10 μL of recombinant human CK2 (RRββ-holoenzyme, 25 ng dissolved in ADB; Millipore). Reactions were initiated by the addition of 10 μL of ATP solution (90% 75 mMMgCl2, 75 μM ATP (final ATP concentration: 15 μM) dissolved in ADB; 10% [γ-33P] ATP (stock 1 mCi/100 μL; 3000 Ci/mmol (Perkin-Elmer) and maintained for 10 minutes at 30° C. The reactions were quenched with 100 μL of 0.75% phosphoric acid and then transferred to and filtered through a phosphor cellulose filter plate (Millipore). After washing each well five times with 0.75% phosphoric acid, the plate was dried under vacuum for 5 min and, following the addition of 15 μL of scintillation fluid to each well, the residual radioactivity was measured using a Wallac luminescence counter. The IC50 values were derived from eight concentrations of test inhibitors.

HL60 (leukemia) = experiment: In vitro cytotoxic activity assay (MTT), HL60; type: cell-based; conditions: Homo sapiens, HL-60; HL60 (leukemia) cells, exposed for 96 hours; read-out: IC50, concentration eliciting 50% inhibition of cell proliferation
Description: as §1

PC3 (prostate) = experiment: In vitro cytotoxic activity assay (MTT), PC3; type: cell-based; conditions: Homo sapiens, Prostate cell; PC3 (prostate) cells, exposed for 96 hours; read-out: IC50, concentration eliciting 50% inhibition of cell proliferation
Description: as §1

- IC50 [1]: 0.055 µM
Structure (SMILES): O=C1Nc2nc(Nc3cccc(Cl)c3)c3cc(C(=O)O)ccc3c2C1=O [Compound 1, 5-((3-chlorophenyl)amino)-1,2-dioxo-2,3-dihydro-1H-pyrrolo[2,3-c]isoquinoline-7-carboxylic Acid]
- IC50 (HCT116 (colon)): 1.3 µM
- IC50 (MDA-MB-231 (breast)): 4.1 µM
- IC50 (H1299 (lung)): 1.9 µM
- IC50 (MCF7 (breast)): 5.5 µM
- IC50 (A375 (melanoma)): 2.7 µM
- IC50 (MIAPaCa-2 (pancreas)): 1.3 µM
- IC50 (HL60 (leukemia)): 3.4 µM
- IC50 (PC3 (prostate)): 1.2 µM
